Measured values taken from patent publication US6620828B2, “Thiazole compounds and pharmaceutical compositions for inhibiting protein kinases and methods for their use” (Agouron Pharmaceuticals, Inc., priority 1999, dated 2003).
Where “and” joins values, the source holds several entries; their conditions need not be identical. Identical values can stand only once.

Columns and labels:
CHK1 = target: T1, CHK1 (Homo sapiens, UniProt O14757); test: CHK1 high-throughput screening; type: biochemical; details: for inhibition at 20 µM: read-out: % inhibition @ 20 μM, Table 4, repeated entries per example; for % inhibition @ 20 μM: Table 4, repeated entries per example
T1 sequence (O14757 1-476): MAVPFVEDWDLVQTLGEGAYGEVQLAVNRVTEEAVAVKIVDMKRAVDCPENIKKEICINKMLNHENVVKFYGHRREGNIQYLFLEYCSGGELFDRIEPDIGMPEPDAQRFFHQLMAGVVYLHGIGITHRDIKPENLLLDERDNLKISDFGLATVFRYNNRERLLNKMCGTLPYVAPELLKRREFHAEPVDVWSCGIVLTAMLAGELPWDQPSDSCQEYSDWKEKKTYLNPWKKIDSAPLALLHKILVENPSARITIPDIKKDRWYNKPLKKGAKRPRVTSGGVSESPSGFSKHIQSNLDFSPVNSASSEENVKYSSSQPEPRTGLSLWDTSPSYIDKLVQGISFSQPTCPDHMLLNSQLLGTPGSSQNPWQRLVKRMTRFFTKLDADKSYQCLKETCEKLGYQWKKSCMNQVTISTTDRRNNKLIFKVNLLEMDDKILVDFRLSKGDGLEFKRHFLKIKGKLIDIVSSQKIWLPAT

[1] = target: T2, phosphorylated VEGF-R2Δ50 (FLVK-P) (Homo sapiens, UniProt P35968, DEL940-989/E990V); test: VEGF-R2 coupled spectrophotometric (FLVK-P) assay; type: biochemical; details: for Ki: spectrophotometric assay
T2 construct: VEGF-R2Δ50 contains residues 806-939 and 990-1171; made in house; host or cells: baculovirus/insect cells
How it was run: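 Baculovirus-expressed human VEGF-R2Δ50 (residues 806-939/990-1171, E990V) was autophosphorylated with 3 mM ATP, 40 mM MgCl2 for 2 h at 4° C. ADP formation was coupled via PK/LDH to NADH oxidation, read at 340 nm, with 5.1 mM poly(E4Y1), 1 mM ATP, 25 mM MgCl2, Hepes pH 7.5. Ki came from activity across compound concentrations.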

CDK4/Cyclin D3 complex = target: T3, CDK4/Cyclin D3 complex (Homo sapiens, UniProt P11802); test: CDK4/Cyclin D assay; type: biochemical; details: Table 2
T3 construct: made in house; host or cells: insect cells co-infected with baculovirus vectors
How it was run: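 Insect-cell-expressed CDK4/cyclin D3 (50 nM) phosphorylating His-tagged Rb fragment (residues 386-928) with 25 μM [^32P]ATP in HEPES pH 7.4, MgCl2, 2% DMSO; 20 min at 30 °C, EDTA stop. Filter-captured 32P by phosphorimager; apparent Ki from competitive or tight-binding inhibition fits.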

CDK2/Cyclin A complex = CDK2/Cyclin A complex (Homo sapiens, UniProt P24941); test: CDK2/Cyclin A assay; type: biochemical; details: Table 2
How it was run: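 Radiometric assay: 150 nM CDK2/cyclin A (insect-cell CDK2, truncated cyclin A) phosphorylates His-tagged Rb fragment (residues 386-928) with 25 μM ATP plus [32P]ATP, pH 7.4 HEPES, 2% DMSO, 30 °C for 20 min. Filter-captured product counted by phosphorimager; apparent Ki from competitive or tight-binding inhibition fits.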

[2] = tested on: lung cancer cells (line MV522); test: Cancer cell proliferation (MV522) assay; type: cell-based; details: MV522, Table 1
Experimental: Cancer Cell Proliferation (MV522) Assay
The protocol for assessing cellular proliferation in cancer cells is similar to that used for assessments in HUVEC cells. Two thousand lung cancer cells (line MV522, acquired from American Tissue Cultural Collection) were seeded in growth media (RPMI1640 medium supplemented with 2 mM glutamine and 10% FBS). Cells are allowed to attach for 1 day prior to addition of test agents and/or vehicles. Cells are treated simultaneously with the same test agents used in the HUVEC assay. Cellular proliferation is quantified by MTT dye reduction assay 72 hours after exposure to test agents. The total length of the assay is 4 days vs. 5 for HUVEC cells because MV522 cells are not exposed to starvation medium.

[3] = tested on: human umbilical vein endothelial cells (HUVEC); test: HUVEC proliferation assay; type: cell-based; details: Homo sapiens, HUVEC, Table 1
How it was run: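 Exponentially growing HUVEC were serum-starved 24 h (F12K + 1% FBS), pre-treated 1 h with compound (0.1% DMSO final), then stimulated with 6 ng/ml VEGF. Proliferation was read 72 h later by MTT reduction (A595). IC50 came from seven 0.5-log concentrations in triplicate; screens gave % inhibition relative to VEGF-only and starved wells.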

[4] = target: T4, unphosphorylated VEGF-R2Δ50 (FLVK) (Homo sapiens, UniProt P35968, DEL940-989/E990V); test: VEGF-R2 coupled spectrophotometric assay, unphosphorylated enzyme (FLVK); type: biochemical; details: Table 1
T4 construct: VEGF-R2Δ50 contains residues 806-939 and 990-1171; made in house; host or cells: baculovirus/insect cells
How it was run: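 Unphosphorylated VEGF-R2Δ50 (5 to 40 nM) with 20 mM poly(E4Y1), 3 mM ATP, 60 mM MgCl2, 2 mM MnCl2 in 200 mM Hepes pH 7.5. ADP production coupled via PK/LDH to NADH oxidation, read at 340 nm. Ki from activity at varying compound concentrations.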

T3 sequence (P11802 whole entry): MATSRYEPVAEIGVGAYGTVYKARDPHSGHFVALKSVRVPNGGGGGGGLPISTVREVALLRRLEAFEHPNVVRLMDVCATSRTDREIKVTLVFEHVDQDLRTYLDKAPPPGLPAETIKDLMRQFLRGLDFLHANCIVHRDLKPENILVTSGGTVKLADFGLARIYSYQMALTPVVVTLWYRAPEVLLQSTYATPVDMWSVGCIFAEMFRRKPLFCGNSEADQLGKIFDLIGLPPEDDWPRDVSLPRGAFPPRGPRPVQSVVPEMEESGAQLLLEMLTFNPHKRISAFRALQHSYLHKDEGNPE
T3 sequence (P30281 whole entry partner): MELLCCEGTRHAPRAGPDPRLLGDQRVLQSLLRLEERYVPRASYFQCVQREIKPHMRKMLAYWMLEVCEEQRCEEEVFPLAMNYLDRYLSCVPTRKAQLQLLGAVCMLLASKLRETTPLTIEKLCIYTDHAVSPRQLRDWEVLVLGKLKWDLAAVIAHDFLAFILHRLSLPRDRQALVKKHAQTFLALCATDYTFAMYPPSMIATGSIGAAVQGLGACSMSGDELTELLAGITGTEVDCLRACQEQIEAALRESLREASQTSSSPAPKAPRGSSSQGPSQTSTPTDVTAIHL
T2 sequence (P35968 with tags, fused parts or gaps DEL940-989/E990V limits assumed): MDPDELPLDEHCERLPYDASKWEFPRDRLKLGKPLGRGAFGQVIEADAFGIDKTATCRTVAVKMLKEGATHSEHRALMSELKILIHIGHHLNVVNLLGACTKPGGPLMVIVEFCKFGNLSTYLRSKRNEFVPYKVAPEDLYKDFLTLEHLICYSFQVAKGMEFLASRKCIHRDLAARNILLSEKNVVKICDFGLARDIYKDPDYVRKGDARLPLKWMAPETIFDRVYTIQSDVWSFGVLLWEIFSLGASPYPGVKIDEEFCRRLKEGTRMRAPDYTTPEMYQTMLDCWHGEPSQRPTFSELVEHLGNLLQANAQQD
T4 sequence (P35968 with tags, fused parts or gaps DEL940-989/E990V limits assumed): as above

Compound	inhibition at 20 µM (CHK1) [%]	Ki ([1]; Table 1) [µM]	other results
CNc1nc(N)c(-c2nc(-c3cccc(O)c3)cs2)s1 [A(30), 3-(4′-Amino-2′-methylamino-[2,5′]bithiazolyl-4-yl)-phenol]	3.4	–	Ki ([1]; Table 2): 0.11 µM; Ki (CDK4/Cyclin D3 complex): 22 µM; Ki (CDK2/Cyclin A complex): 4.8 µM
COc1cc(Nc2nc(N)c(-c3nc(-c4cccc(C(=O)NCCc5ccccc5)c4)cs3)s2)cc(OC)c1OC [A(31), 3-[4′-Amino-2′-(3,4,5-trimethoxy-phenylamino)-[2,5′]bithiazolyl-4-yl]-N-phenethyl-benzamide]	2.5	–	–
COc1cc(Nc2nc(N)c(-c3nc(-c4cccc(C(=O)NCc5ccccc5)c4)cs3)s2)cc(OC)c1OC [A(32), 3-[4′-Amino-2′-(3,4,5-trimethoxy-phenylamino)-[2,5′]bithiazolyl-4-yl]-N-benzyl-benzamide]	-3.8	–	–
CCN(CC)CCCNc1nc(N)c(-c2nc(-c3cccc(NC(=O)c4ccccc4)c3)cs2)s1 [A(37), N-{3-[4′-Amino-2′-(3-diethylamino-propylamino)-[2,5′]bithiazolyl-4-yl]-phenyl}-benzamide]	16	–	–
Nc1nc(NCCc2ccccc2)sc1-c1nc(-c2cccc(NC(=O)c3ccccc3)c2)cs1 [A(38), N-[3-(4′-Amino-2′-phenethylamino-[2,5′]bithiazolyl-4-yl)-phenyl]-benzamide]	9.1	–	% inhibition @ 20 μM (CHK1): 9.8%; FLVK-P % inhibition @ 0.05 ([1]; Table 1, at 0.05, concentration unit not printed (head nM)): 7% @
COC(=O)c1cccc(Nc2nc(N)c(-c3nc(-c4cccc(NC(=O)c5ccccc5)c4)cs3)s2)c1 [A(39), 3-[4′-Amino-4-(3-benzoylaminophenyl)-[2,5′]bithiazolyl-2′-ylamino]-benzoic acid methyl ester]	2.2	–	–
Nc1nc(Nc2ccc3c(c2)OCO3)sc1-c1nc(-c2cccc(NC(=O)c3ccccc3)c2)cs1 [A(41), N-{3-[4′-Amino-2′-(benzo[1,3]dioxol-5-ylamino)-[2,5′]bithiazolyl-4-yl]-phenyl}-benzamide]	3.8	–	–
Cc1cc(C)cc(Nc2nc(N)c(-c3nc(-c4cccc(NC(=O)c5ccccc5)c4)cs3)s2)c1 [A(42), N-{3-[4′-Amino-2′-(3,5-dimethylphenylamino)-[2,5′]bithiazolyl-4-yl]-phenyl}-benzamide]	-0.1	0.0073	–
Nc1nc(Nc2ccc3c(c2)CCC3)sc1-c1nc(-c2cccc(NC(=O)c3ccccc3)c2)cs1 [A(43)]	-3	–	–
CSc1cccc(Nc2nc(N)c(-c3nc(-c4cccc(NC(=O)c5ccccc5)c4)cs3)s2)c1 [A(46), N-{3-[4′-Amino-2′-(3-methylsulfanyl-phenylamino)-[2,5′]bithiazolyl-4-yl]-phenyl}-benzamide]	0.9	–	–
Nc1nc(Nc2cccc(C(=O)O)c2)sc1-c1nc(-c2cccc(NC(=O)c3ccccc3)c2)cs1 [A(50), 3-[4′-Amino-4-(3-benzoylamino-phenyl)-[2,5′]bithiazolyl-2′-ylamino]-benzoic acid]	30.1	0.0089	IC50 [2]: > 10 µM; IC50 [3]: > 0.7 µM
COc1ccc(Nc2nc(N)c(-c3nc(-c4cccc(NC(=O)c5ccccc5)c4)cs3)s2)cc1 [A(52), 4-(4′-Amino-4-(3-benzamidophenyl)-[2,5′]bithiazolyl-2′-ylamino)-methoxyphenyl]	2	–	–
Nc1nc(Nc2ccc(S(=O)(=O)N3CCCCC3)cc2)sc1-c1nc(-c2cccc(NC(=O)c3ccccc3)c2)cs1 [A(55), 4-(4′-Amino-4-(3-benzamidophenyl)-[2,5′]bithiazolyl-2′-ylamino)-phenylsulfonylpiperidine]	0.1	–	–
Nc1nc(Nc2ccc([N+](=O)[O-])cc2)sc1-c1nc(-c2cccc(NC(=O)c3ccccc3)c2)cs1 [A(56), 4-(4′-Amino-4-(3-benzamidophenyl)-[2,5′]bithiazolyl-2′-ylamino)-nitrophenyl]	-2.9	0.084	–
CC(=O)c1ccc(Nc2nc(N)c(-c3nc(-c4cccc(NC(=O)c5ccccc5)c4)cs3)s2)cc1 [A(58), 4-(4′-Amino-4-(3-benzamidophenyl)-[2,5′]bithiazolyl-2′-ylamino)-acetophenone]	-7.2	–	–
Nc1nc(Nc2ccc(S(N)(=O)=O)cc2)sc1-c1nc(-c2ccc(Cl)c(O)c2)cs1 [A(69), 4-[4′-Amino-4-(4-chloro-3-hydroxy-phenyl)-[2,5′]bithiazolyl-2′-ylamino]-benzenesulfonamide]	4.8	–	% inhibition @ 20 μM (CHK1): 2.7% and 3.8%; Ki (CDK4/Cyclin D3 complex): 7.2 µM; Ki (CDK2/Cyclin A complex): 4 µM
Nc1nc(Nc2ccc(S(N)(=O)=O)cc2)sc1-c1nc(-c2ccc(-c3ccccc3)cc2)cs1 [A(70), 4-(4′-Amino-4-biphenyl-4-yl-[2,5′]bithiazolyl-2′-ylamino)-benzenesulfonamide]	3.8	–	inhibition at 100 µM (CDK4/Cyclin D3 complex; at 100 (printed 100 or 100 μM)): < 0%
COc1cc(Nc2nc(N)c(-c3nc(-c4cccc(NC(=O)c5cccc(Cl)c5)c4)cs3)s2)cc(OC)c1OC [D(40), N-{3-[4′-Amino-2′-(3,4,5-trimethoxy-phenylamino)-[2,5′]bithiazolyl-4-yl]-phenyl}-3-chloro-benzamide]	–	0.0011	IC50 [2]: > 10 µM; IC50 [3]: 0.039 µM; Ki [4]: 0.0014 µM
COc1cc(Nc2nc(N)c(-c3nc(-c4cccc(NC(=O)c5ncc(C)s5)c4)cs3)s2)cc(OC)c1OC [D(42), 5-Methyl-thiazole-2-carboxylic acid {3-[4′-amino-2′-(3,4,5-trimethoxy-phenylamino)-[2,5′]bithiazolyl-4-yl]-phenyl}-amide]	–	0.00034	IC50 [2]: > 10 µM; IC50 [3]: 0.053 µM; Ki [4]: 0.00077 µM
COc1cc(Nc2nc(N)c(-c3nc(-c4cccc(NC(=O)OCc5ccccc5)c4)no3)s2)cc(OC)c1OC [D(44), 3-[3-Benzyloxycarboxy-aminophenyl]-5-[2-[(3,4,5-trimethoxyphenyl)amino]-4-amino-5-thiazolyl]-1,2,4-oxadiazole]	–	0.0054	IC50 [2]: > 10 µM; IC50 [3]: 0.373 µM; Ki [4]: 0.0021 µM
COc1cc(Nc2nc(N)c(-c3nc(-c4cccc(NC(=O)c5cccc(C)c5)c4)no3)s2)cc(OC)c1OC [D(47), 3-[3-(3-Methylbenzamido)phenyl]-5-[2-[(3,4,5-trimethoxyphenyl)amino]-4-amino-5-thiazolyl]-1,2,4-oxadiazole]	–	0.0011	IC50 [2]: > 10 µM; IC50 [3]: 0.013 µM; Ki [4]: 0.00034 µM
